Measurements: patent US20030180355A1, “Combination therapy for hypertension” (priority 2001, published 2003)
Marks after values point to notes of the source that are not given here.

How the values were obtained:
[1] = test system: uninephrectomized anesthetized rats; assay: Model of acute angiotensin-mediated renal hypertension in anesthetized rats; format: in vivo, Sprague-Dawley rats
Experimental: Male Sprague-Dawley rats, weighing 250-300 g, were anaesthetized with pentobarbital sodium (35 mg/kg, i.p.) and placed on a thermic blanket. The temperature was maintained at 37° C. with a thermoregulator via a rectal probe. The animals were tracheotomized to facilitate spontaneous breathing. A polyethylene catheter was placed in the left jugular vein to allow for infusion of pentobarbital sodium to maintain anesthesia. The left femoral vein and artery were cannulated with polyethylene catheters to allow drugs administration and to monitor blood pressure, respectively.
The animals then underwent a left nephrectomy by excising the left kidney via a flank incision. The right kidney and renal vein, artery and ureter then were exposed via a right retroperitoneal incision, under a dissecting microscope. Silk threads were placed around both vessels and ureter. The cavity was then covered with Vaseline oil. See Recordati, et al. 2000, J. Hypertension, 18:1277-1287.
ECG (lead II) was recorded by means of subcutaneous electrodes. After 30-60 minutes of basal recordings of arterial blood pressure and heart rate the threads around the renal vessels and ureter were tied close to the renal hilum to induce complete renal ischemia of the right kidney. After 2 hours of ischemia (designed as “120” in Tables 1-4), the threads were removed to allow renal reperfusion and urine output. The reopening of the renal hilum and restoration of renal circulation, induced an increase in blood pressure that peaked 5-10 minutes and lasted about 60 minutes. Drugs (vehicle, enalapril (100 μg/kg), lercanidipine (10 μg/kg), or both lercanidipine (10 μg/kg) and enalapril (100 μg/kg)) were administered intravenously at 5 minutes after reperfusion began (defined as 125 in Tables 4-7).
Statistical analysis was performed during the reperfusion time (time 125-180 minutes). To evaluate the statistical differences among the treatment groups, data were analyzed using a three-way ANOVA (analysis of variance) with repeated measures on factor time and pre-planned multiple comparisons. Statistical analysis was performed by means of general linear model procedure (GLM) with SAS software version 6.12.

[2] = test system: patients with a sitting diastolic blood pressure (SDBP) of 95-109 mm Hg; assay: Clinical study, factorial design, randomized double-blind placebo-controlled, 8 weeks; format: in vivo, human; conditions: for Therapeutic response rate, study participants with SDBP < 90 mm Hg / Change in SDBP / Change in SSBP: 8 weeks; for Change in SDBP / Change in SSBP: vs baseline, response surface analysis
Experimental: A multi-center, randomized, double-blind, placebo-controlled, parallel groups, factorial design trial was conducted. After a 14-day (±3 days) screening/washout period during which patients were washed from ongoing antihypertensive therapy, eligible patients with a sitting diastolic blood pressure (SDBP) of 95-109 mm Hg, entered the 28 day (±3 days) single-blind placebo run-in period during which they received placebo once-daily. Patients who were not responsive to this treatment and whose SDBP was 95-109 mm Hg, were randomized into an eight-week double-blind treatment phase. Baseline measurements were taken on Study Day 0 with post-therapy assessments during the double blind period scheduled on Study Days 14, 28, 42, and 56. Laboratory tests were conducted prior to the beginning of the screening period and on study Day 0 as well as at the end of the study.
The number of patients screened was greater than 800; 798 entered the 4-week single-blind placebo period, and 663 eligible patients were randomized into the 8-week double-blind treatment. The number in parenthesis represents the number of patients in each group available for efficacy evaluation.
The patients were randomized into one of the above noted 12 treatment groups. Tablets of lercanidipine (5 and 10 mg) and enalapril (2.5 mg) were encapsulated in the appropriate doses, in order to assure double-blind conditions. All tablets were of commercial origin except for the 5 mg lercanidipine, which were prepared in accordance with Table 3.
Patients were instructed to take one capsule of the study medication once daily 15 minutes before breakfast, between 6 and 10 am. All medications were to be withheld on mornings of clinic visits until after blood pressure evaluations at 22-26 hours following the previous day's dose of study medication.
1. Trough (Minimum) (24±2 hours post-dose) sitting diastolic blood pressure (SDBP)
2. Trough (24±2 hours post-dose) sitting systolic blood pressure (SSBP)
4. Percent of patients with SDBP<90 mm Hg
The primary efficacy variable was the change from baseline to mean trough SDBP after 8 weeks of double-blind treatment. The analysis was performed in an “intent-to-treat” fashion, including all randomized patients who had received at least one dose of double-blind treatment, and had at least one post-baseline SDBP measurement 18-48 hours post-dose. In case of premature withdrawal from the study the last observation carried forward (LOCF) algorithm was applied (“end point analysis”).
The overall treatment comparison was performed using an analysis of covariance (ANCOVA) with treatment and centers as main effects and baseline value as covariate.
An additional ANOVA was performed using the factorial model in order to test for the interaction of lercanidipine dose and enalapril dose at each time-point.
The number of patients who discontinued the study because of an adverse event is reported in parenthesis.

[3] = cited from earlier work
[4] = enalapril 100 μg/kg i.v., time 0 min, basal
[5] = enalapril 100 μg/kg i.v., time 120 min, end of ischemia, before drug
[6] = enalapril 100 μg/kg i.v., time 125 min, reperfusion, before drug
[7] = enalapril 100 μg/kg i.v., time 130 min, drug given at 125 min
[8] = enalapril 100 μg/kg i.v., time 135 min, drug given at 125 min
[9] = enalapril 100 μg/kg i.v., time 150 min, drug given at 125 min
[10] = enalapril 100 μg/kg i.v., time 165 min, drug given at 125 min
[11] = enalapril 100 μg/kg i.v., time 180 min, drug given at 125 min
[12] = enalapril 5 mg once daily, 55 patients randomized
[13] = enalapril 10 mg once daily, 55 patients randomized
[14] = lercanidipine 10 μg/kg i.v., time 0 min, basal
[15] = lercanidipine 10 μg/kg i.v., time 120 min, end of ischemia, before drug
[16] = lercanidipine 10 μg/kg i.v., time 125 min, reperfusion, before drug
[17] = lercanidipine 10 μg/kg i.v., time 130 min, drug given at 125 min
[18] = lercanidipine 10 μg/kg i.v., time 135 min, drug given at 125 min
[19] = lercanidipine 10 μg/kg i.v., time 150 min, drug given at 125 min
[20] = lercanidipine 10 μg/kg i.v., time 165 min, drug given at 125 min
[21] = lercanidipine 10 μg/kg i.v., time 180 min, drug given at 125 min
[22] = lercanidipine 5 mg once daily, 54 patients randomized
[23] = lercanidipine 10 mg once daily, 57 patients randomized
[24] = lercanidipine 20 mg once daily, 54 patients randomized

CCOC(=O)[C@H](CCc1ccccc1)N[C@@H](C)C(=O)N1CCC[C@H]1C(=O)O [enalapril, (S)-1-[N-1-(ethoxycarbonyl)-3-phenylpropyl]-L-alanyl-L-proline]
DBP (diastolic blood pressure) [1, 4]: 69.6 ± 2.1 mmHg
MBP (mean blood pressure) [1, 4]: 83.4 ± 2.1 mmHg
SBP (systolic blood pressure) [1, 4]: 111.0 ± 2.6 mmHg
DBP (diastolic blood pressure) [1, 5]: 65.1 ± 3.5 mmHg
MBP (mean blood pressure) [1, 5]: 80.0 ± 3.9 mmHg
SBP (systolic blood pressure) [1, 5]: 109.9 ± 5.1 mmHg
DBP (diastolic blood pressure) [1, 6]: 124.9 ± 4.3 mmHg
MBP (mean blood pressure) [1, 6]: 142.2 ± 5.4 mmHg
SBP (systolic blood pressure) [1, 6]: 176.8 ± 8.1 mmHg
DBP (diastolic blood pressure) [1, 7]: 109.9 ± 4.1 a mmHg
MBP (mean blood pressure) [1, 7]: 122.0 ± 4.1 b mmHg
SBP (systolic blood pressure) [1, 7]: 146.1 ± 4.5 c mmHg
DBP (diastolic blood pressure) [1, 8]: 107.1 ± 4.5 a mmHg
MBP (mean blood pressure) [1, 8]: 119.4 ± 4.2 b mmHg
SBP (systolic blood pressure) [1, 8]: 143.9 ± 4.1 b mmHg
DBP (diastolic blood pressure) [1, 9]: 95.9 ± 7.9 b mmHg
MBP (mean blood pressure) [1, 9]: 109.0 ± 7.4 c mmHg
SBP (systolic blood pressure) [1, 9]: 135.4 ± 6.6 b mmHg
DBP (diastolic blood pressure) [1, 10]: 86.5 ± 8.5 b mmHg
MBP (mean blood pressure) [1, 10]: 100.5 ± 8.0 b mmHg
SBP (systolic blood pressure) [1, 10]: 128.5 ± 7.6 a mmHg
DBP (diastolic blood pressure) [1, 11]: 78.9 ± 7.6 a mmHg
MBP (mean blood pressure) [1, 11]: 93.7 ± 7.2 a mmHg
SBP (systolic blood pressure) [1, 11]: 123.4 ± 6.9 mmHg
p value on mean blood pressure vs lercanidipine ([1]; three-way ANOVA, reperfusion time 125-180 min, lercanidipine 10 μg/kg, enalapril 100 μg/kg i.v.): p < 0.001
Therapeutic response rate, study participants with SDBP < 90 mm Hg ([2]; enalapril 5 mg once daily): 28%
Change in SDBP ([2]; enalapril 5 mg once daily): −7.7
Change in SSBP ([2]; enalapril 5 mg once daily, confidence interval in parentheses): −9.6 (8.1-11.2)
number of patients who discontinued the study because of an adverse event [2, 12]: 1
number of patients with any adverse events related to study drug [2, 12]: 9
Therapeutic response rate, study participants with SDBP < 90 mm Hg ([2]; enalapril 10 mg once daily): 43%
Change in SDBP ([2]; enalapril 10 mg once daily): −8.8
Change in SSBP ([2]; enalapril 10 mg once daily, confidence interval in parentheses): −11.1 (9.1-13.2)
number of patients who discontinued the study because of an adverse event [2, 13]: 1
number of patients with any adverse events related to study drug [2, 13]: 12
time of peak plasma levels of enalaprilat ([3]; following oral administration of enalapril): 3 to 4 h

COC(=O)C1=C(C)NC(C)=C(C(=O)OC(C)(C)CN(C)CCC(c2ccccc2)c2ccccc2)C1c1cccc([N+](=O)[O-])c1 (stereo not drawn) [lercanidipine, methyl 1,1,N-trimethyl-N-(3,3-diphenylpropyl)-2-aminoethyl 1,4-dihydro-2,6-dimethyl-4-(3-nitrophenyl)pyridine-3,5-dicarboxylate]
DBP (diastolic blood pressure) [1, 14]: 69.8 ± 2.5 mmHg
MBP (mean blood pressure) [1, 14]: 83.3 ± 2.8 mmHg
SBP (systolic blood pressure) [1, 14]: 110.4 ± 3.6 mmHg
DBP (diastolic blood pressure) [1, 15]: 70.6 ± 5.4 mmHg
MBP (mean blood pressure) [1, 15]: 85.3 ± 5.7 mmHg
SBP (systolic blood pressure) [1, 15]: 114.5 ± 6.5 mmHg
DBP (diastolic blood pressure) [1, 16]: 119.3 ± 5.2 mmHg
MBP (mean blood pressure) [1, 16]: 135.4 ± 6.4 mmHg
SBP (systolic blood pressure) [1, 16]: 167.6 ± 8.9 mmHg
DBP (diastolic blood pressure) [1, 17]: 97.1 ± 3.1 c mmHg
MBP (mean blood pressure) [1, 17]: 111.5 ± 3.2 c mmHg
SBP (systolic blood pressure) [1, 17]: 140.4 ± 3.8 b mmHg
DBP (diastolic blood pressure) [1, 18]: 93.1 ± 4.0 c mmHg
MBP (mean blood pressure) [1, 18]: 108.9 ± 3.7 c mmHg
SBP (systolic blood pressure) [1, 18]: 140.5 ± 3.7 a mmHg
DBP (diastolic blood pressure) [1, 19]: 89.5 ± 4.3 b mmHg
MBP (mean blood pressure) [1, 19]: 106.1 ± 3.9 b mmHg
SBP (systolic blood pressure) [1, 19]: 139.4 ± 3.7 mmHg
DBP (diastolic blood pressure) [1, 20]: 83.5 ± 4.6 a mmHg
MBP (mean blood pressure) [1, 20]: 99.7 ± 4.7 mmHg
SBP (systolic blood pressure) [1, 20]: 132.0 ± 5.3 mmHg
DBP (diastolic blood pressure) [1, 21]: 78.8 ± 4.0 mmHg
MBP (mean blood pressure) [1, 21]: 95.2 ± 4.1 mmHg
SBP (systolic blood pressure) [1, 21]: 128.1 ± 4.7 mmHg
Therapeutic response rate, study participants with SDBP < 90 mm Hg ([2]; lercanidipine 5 mg once daily): 32%
Change in SSBP ([2]; lercanidipine 5 mg once daily, confidence interval in parentheses): −9.5 (7.8-11.1)
number of patients who discontinued the study because of an adverse event [2, 22]: 3
number of patients with any adverse events related to study drug [2, 22]: 8
Therapeutic response rate, study participants with SDBP < 90 mm Hg ([2]; lercanidipine 10 mg once daily): 40%
Change in SDBP ([2]; lercanidipine 10 mg once daily): −8.2
Change in SSBP ([2]; lercanidipine 10 mg once daily, confidence interval in parentheses): −10.8 (9.1-12.4)
number of patients who discontinued the study because of an adverse event [2, 23]: 1
number of patients with any adverse events related to study drug [2, 23]: 10
Therapeutic response rate, study participants with SDBP < 90 mm Hg ([2]; lercanidipine 20 mg once daily): 59%*
Change in SDBP ([2]; lercanidipine 20 mg once daily): −9.9*
Change in SSBP ([2]; lercanidipine 20 mg once daily, in mm Hg): −13.4* (11.1-15.6)
number of patients who discontinued the study because of an adverse event [2, 24]: 3
number of patients with any adverse events related to study drug [2, 24]: 10
time of peak plasma levels ([3]; following oral dosing): 2 to 3 h
